Reference: patent publication US10660967B2, “Curcumin conjugates and methods of use thereof” (priority 2016, dated 2020)

Experiments:
MCF-7 cells = assay: Effect on doxorubicin induced cytotoxicity (MTT)
Experimental: The effects of curcumin conjugates on doxorubicin induced cytotoxicity were evaluated. In order to further examine whether curcumin derivatives can enhance conventional chemotherapeutic agents, MCF-7 cells were treated with 100 μM curcumin derivatives alone or in combination with 10 μM doxorubicin (DOX) for 48 hr. Control cultures received only medium, vehicle (DMSO), or vehicle+DOX. The percentage of viable cells was determined by MTT assay according to equation (5): […]

[1] = tested on: HepG2 (hepatocellular) carcinoma cell line; assay: Anti-tumor properties, MTT; format: cell-based; settings: Homo sapiens; HepG2, MTT, 72 h; read-out: IC50
Experimental: (§1) Anti-tumor properties of curcumin conjugates were evaluated. The synthesized curcumin-amino acid conjugates and curcumin itself were screened for their antitumor properties against human tumor cell lines utilizing HepG2 (hepatocellular), MCF7 (breast), and HCT116 (colon) carcinoma cell lines by the standard mitochondrial dependent reduction of yellow MTT [3-(4,5-dimethylthiazol-2-yl)-2,5-diphenyl-tetrazolium bromide] to purple formazan technique. Cancer cells were obtained from the Egyptian Company for Production of Vaccines, Sera and Drugs (VACSERA), Cairo, Egypt. Media, chemicals and supplies for the bio-assay were obtained from Biowest, Gibco and Lonza Companies. Cells were suspended in RPMI-1640 medium for HepG2, DMEMF12 for MCF-7, and DMEM for HCT116 in addition to 1% antibiotic-antimycotic mixture (10 […] potassium penicillin, 10 […] streptomycin sulfate and […] amphotericin B), 10% fetal bovine serum and 1% L-glutamine at 37° C., under 5% CO2 and 95% humidity. Cells were seeded at a concentration of 10×10^3 cells per well in fresh complete growth medium in 96-well tissue culture microtiter plates for 24 h. Media was aspirated, 180 μL fresh medium (without serum) were added and cells were incubated with different concentrations of sample to give a final concentration of 100 μM. 0.5% DMSO was used as a negative control and doxorubicin was used as a positive control (standard reference). Triplicate wells were prepared for each individual tested compound/dose. After 72 h of incubation, the medium was aspirated, 40 μL MTT salt (2.5 mg ml^1) were added to each well and incubated for an additional 4 h at 37° C. To stop the reaction and dissolve the formed crystals, 200 μL of 10% sodium dodecyl sulfate (SDS) in deionized water were added to each well and incubated overnight at 37° C. The absorbance was then measured at 595 nm with a reference wavelength of 620 nm. Data were collected as mean values for experiments performed in triplicates for each compound which had been measured by MTT assay.
(§2) The percentage of cell survival was calculated according to equation (4): […]
(§3) The IC50 was determined using Graph-Pad PRISM version-5 software. Statistical calculations for determination of the mean and standard deviation (SD) values were determined by SPSS 16 software.

[2] = tested on: HCT116 (colon) carcinoma cell line; assay: Anti-tumor properties, MTT; format: cell-based; settings: Homo sapiens, HCT-116; HCT116, MTT, 72 h; read-out: IC50
Experimental: as §1, §2, §3

[3] = tested on: MCF7 (breast) carcinoma cell line; assay: Anti-tumor properties, MTT; format: cell-based; settings: Homo sapiens; MCF7, MTT, 72 h; read-out: IC50
Experimental: as §1, §2, §3

Q: `COc1cccc2c1C(=O)c1c(O)c3c(c(O)c1C2=O)C[C@@](O)(C(=O)CO)C[C@@H]3O[C@H]1C[C@H](N)[C@H](O)[C@H](C)O1` [DOX, doxorubicin, reference compound] was tested. Which viability at 10 µM (MCF-7 cells; Homo sapiens, MCF7, 48 h, read-out: Percentage of viable cells MCF-7 (average ± SD), 10 μM DOX in combination with 100 μM curcumin derivative, 48 hr) did it give?
A: 44.8%

Q: And the “Percentage of viable cells MCF-7 (average ± SD)” value (MCF-7 cells; human, 48 h, 100 μM)?
A: 0 ± 0.00

Q: And the IC50 [1]?
A: 34.2 µM

Q: And the IC50 [2]?
A: 7.17 µM

Q: What about the IC50 [3] of the same molecule?
A: 20.9 µM
